Source: ChEMBL document CHEMBL5360640, “Liquiritigenin Confers Liver Protection by Enhancing NRF2 Signaling through Both Canonical and Non-canonical Signaling Pathways” (2023)
Calls of active or inactive are those of the source.

Assays:
[1] = test system: Mus musculus; assay: In vivo activation of NRF2 in C57BL/6J mouse liver assessed as upregulation of NRF2 level administered at 40 mg/kg, ip 3 times in a day by immunohistochemistry analysis; assay type: functional, organism-based; details: filed as activator, time 1.0 day
[2] = test system: BNL CL.2; assay: Effect on KEAP1 protein level in mouse BNL CL.2 cells assessed as no change in level at 40 uM measured upto 24 hrs; assay type: functional, cell-based; details: filed as activator
[3] = biological target: T1, Nuclear factor erythroid 2-related factor 2 (Mus musculus) (UniProt Q60795); assay: Activation of NRF2 in mouse BNL CL.2 cells assessed as increase in Hmox1 gene level upto 40 uM incubated upto 24 hrs by rt-qPCR analysis; assay type: cell-based; details: filed as activator
T1 sequence (whole entry): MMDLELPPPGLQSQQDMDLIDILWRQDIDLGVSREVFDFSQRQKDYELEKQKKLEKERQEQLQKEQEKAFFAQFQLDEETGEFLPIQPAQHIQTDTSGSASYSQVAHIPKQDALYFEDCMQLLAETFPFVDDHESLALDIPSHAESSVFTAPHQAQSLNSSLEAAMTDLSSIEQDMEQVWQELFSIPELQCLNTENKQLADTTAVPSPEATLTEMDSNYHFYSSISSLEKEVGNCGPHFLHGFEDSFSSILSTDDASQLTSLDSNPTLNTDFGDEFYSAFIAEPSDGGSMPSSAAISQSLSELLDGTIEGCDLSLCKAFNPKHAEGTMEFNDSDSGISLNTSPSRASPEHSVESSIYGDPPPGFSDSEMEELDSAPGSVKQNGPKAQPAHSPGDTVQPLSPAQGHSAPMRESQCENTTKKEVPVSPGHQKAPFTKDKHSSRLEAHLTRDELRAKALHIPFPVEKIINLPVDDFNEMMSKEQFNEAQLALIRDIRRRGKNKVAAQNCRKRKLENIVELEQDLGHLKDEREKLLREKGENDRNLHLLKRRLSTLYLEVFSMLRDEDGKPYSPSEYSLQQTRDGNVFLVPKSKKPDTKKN

[4] = test system: BNL CL.2; assay: Effect on KEAP1 level in mouse BNL CL.2 NRF2 knockout cells assessed as no change treated at 40 uM for 24 hrs by immunoblot analysis; assay type: functional, cell-based
[5] = biological target: T1, Nuclear factor erythroid 2-related factor 2 (Mus musculus); assay: Activation of NRF2 in mouse BNL CL.2 cells treated for 8 to 24 hrs by immunoblot analysis; assay type: cell-based; details: filed as activator, dose 10-40 µM, time 8-24 hrs
[6] = biological target: T2, Nuclear factor erythroid 2-related factor 2 (Homo sapiens) (UniProt Q16236); assay: Activation of NRF2 in human MHCC97H cells treated for 8 to 24 hrs by immunoblot analysis; assay type: cell-based; details: filed as activator, dose 10-40 µM, time 8-24 hrs
T2 sequence (whole entry): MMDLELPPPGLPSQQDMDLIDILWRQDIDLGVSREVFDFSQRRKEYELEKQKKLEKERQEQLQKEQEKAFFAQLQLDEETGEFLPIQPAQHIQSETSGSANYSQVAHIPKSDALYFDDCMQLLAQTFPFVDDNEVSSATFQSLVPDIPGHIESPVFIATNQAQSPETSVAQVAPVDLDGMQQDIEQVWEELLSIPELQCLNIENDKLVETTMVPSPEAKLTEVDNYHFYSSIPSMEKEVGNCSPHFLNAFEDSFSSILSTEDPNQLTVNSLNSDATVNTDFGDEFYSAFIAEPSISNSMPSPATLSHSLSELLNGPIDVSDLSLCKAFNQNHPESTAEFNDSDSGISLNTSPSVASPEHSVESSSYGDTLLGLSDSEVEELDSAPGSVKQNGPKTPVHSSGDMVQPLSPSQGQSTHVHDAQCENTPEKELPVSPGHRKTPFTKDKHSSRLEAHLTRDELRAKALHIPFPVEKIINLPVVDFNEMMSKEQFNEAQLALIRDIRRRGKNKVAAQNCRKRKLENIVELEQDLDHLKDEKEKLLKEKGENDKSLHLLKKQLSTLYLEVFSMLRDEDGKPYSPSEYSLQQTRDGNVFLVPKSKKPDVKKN

[7] = test system: BNL CL.2; assay: Effect of ROS generation in mouse BNL CL.2 cells incubated at 10 uM for 24 hrs (reference value: 9.42%); assay type: functional
[8] = test system: BNL CL.2; assay: Upregulation of DYNLT1 mRNA expression in mouse […] cells; assay type: functional, cell-based
[9] = test system: BNL CL.2; assay: Effect of ROS generation in mouse BNL CL.2 NRF2 knockout cells assessed as increase in ROS level treated at 40 uM for 24 hrs (reference value: 10.6%); assay type: functional
[10] = test system: BNL CL.2; assay: Inhibition of autophagy in mouse BNL CL.2 cells assessed as suppression of autolysosome formation by measuring reduction in yellow puncta incubated upto 80 uM for 24 hrs by immuno fluoroscence analysis; assay type: functional, cell-based
[11] = test system: BNL CL.2; assay: Upregulation of DZANK1 mRNA expression in mouse […] cells; assay type: functional, cell-based
[12] = test system: BNL CL.2; assay: Effect of ROS generation in cisplatin induced hepatotoxicity in mouse BNL CL.2 NRF2 knockout cells assessed as increase in ROS level treated at 40 uM for 24 hrs (reference value: 93.8%); assay type: functional
[13] = test system: Mus musculus; assay: Hepatoprotective activity against cisplatin induced liver injury […] mouse model assessed as increase of NRF2 expression in liver tissue at 40 mg/kg, ip administered every 24 hrs for 72 hrs by IHC staining analysis; assay type: functional, organism-based
[14] = test system: BNL CL.2; assay: Effect on KEAP1 level in mouse BNL CL.2 cells assessed as no change treated at 40 uM for 24 hrs by immunoblot analysis; assay type: functional, cell-based
[15] = test system: BNL CL.2; assay: Upregulation of […] mRNA expression in mouse […] CL.2 cells; assay type: functional, cell-based
[16] = biological target: T1, Nuclear factor erythroid 2-related factor 2 (Mus musculus); assay: Activation of flag-tagged NRF2 in mouse BNL CL.2 cells in presence of wildtype His-tagged KEAP1 at 40 uM for 24 hrs followed by treatment with MG132 for 4 hrs by immunoblot assay; assay type: cell-based; details: filed as activator
[17] = test system: Mus musculus; assay: Hepatoprotective activity against cisplatin induced liver injury […] mouse model assessed as reduction of AST in serum at 40 mg/kg, ip administered every 24 hrs for 72 hrs; assay type: functional, organism-based
[18] = test system: Mus musculus; assay: Hepatoprotective activity against cisplatin induced liver injury […] mouse model assessed as reduction of ALT in serum at 40 mg/kg, ip administered every 24 hrs for 72 hrs; assay type: functional, organism-based
[19] = test system: BNL CL.2; assay: Inhibition of autophagy in mouse BNL CL.2 cells assessed as increase in p62 level incubated upto 80 uM for 24 hrs by immunoblotting analysis; assay type: functional, cell-based
[20] = biological target: T1, Nuclear factor erythroid 2-related factor 2 (Mus musculus); assay: Binding affinity to Flag-tagged NRF2 in mouse BNL CL.2 cells assessed as increase in protein half life treated upto 45 mins with compound; assay type: cell-based; details: filed as activator
[21] = biological target: T1, Nuclear factor erythroid 2-related factor 2 (Mus musculus); assay: Activation of flag-tagged NRF2 in mouse BNL CL.2 cells in presence of His-tagged KEAP1 C151S mutant at 40 uM for 24 hrs followed by treatment with MG132 for 4 hrs by immunoblot assay; assay type: cell-based; details: filed as activator
[22] = test system: BNL CL.2; assay: Inhibition of autophagy in mouse BNL CL.2 cells assessed as suppression of autophagosome formation by measuring reduction in red puncta incubated upto 80 uM for 24 hrs by immuno fluoroscence analysis; assay type: functional, cell-based
[23] = test system: BNL CL.2; assay: Upregulation of CCDC122 mRNA expression in mouse […] cells; assay type: functional, cell-based
[24] = test system: BNL CL.2; assay: Upregulation of NOTUM mRNA expression in mouse […] cells; assay type: functional, cell-based

O=C1C[C@@H](c2ccc(O)cc2)Oc2cc(O)ccc21 [LIQUIRTIGENIN]
91.9%: Activity [12]
8.04%: Activity [9]
active: Activity [1] | Activity [2] | Activity [3] | Activity [4] | Activity [5] Dose-Dependent Effect | Activity [6] Dose-Dependent Effect | Activity [8] | inhibition [10] | Activity [11] | Activity [13] | Activity [14] | Activity [15] | Activity [16] | Activity [17] | Activity [18] | inhibition [19] | Activity [20] | Activity [21] | inhibition [22] | Activity [23] | Activity [24]
9.8%: Activity [7]
